Data on twelve compounds can be found in publication PMC7582705, “Structure-Based Discovery of Novel Chemical Classes of Autotaxin Inhibitors” (International Journal of Molecular Sciences, 2020).

Molecules are shown by their SMILES. Where two headings read alike, the source gives them in different places.

Data set [1] addresses T1, ATX (Homo sapiens, UniProt Q13822). As to conditions: LPC assay; cited from earlier work.
Data set [2] addresses T2, mouse ATX (Mus musculus, UniProt Q9R1E6).
T2 construct: purchased Sino Biological
Kind of data set: Amplex Red Lyso-phospholipase D assay, mouse ATX. It counts as biochemical. Here is the method: All compounds proposed were assessed for their ATX inhibitory activity in vitro using the Amplex Red assay. The Amplex Red Lyso-phospholipase D assay is a fluorometry-based assay providing a sensitive method for measuring Lyso-phospholipase D (ATX) activity in vitro. In this enzyme-coupled assay, ATX activity is monitored indirectly using 10-acetyl-3,7-dihydrophenoxazine (Amplex Red reagent), a sensitive fluorogenic probe for H2O2. ATX initially cleaves the Lysophosphatidylcholine (LPC) substrate to yield choline and Lysophosphatidic acid (LPA), while choline gets subsequently oxidized by choline oxidase to betaine and H2O2. Lastly, H2O2, in the presence of horseradish peroxidase (HRP), reacts with Amplex Red reagent in a 1:1 stoichiometry to generate the highly fluorescent product resorufin.
The inhibition assay was performed as previously described with some modifications in order to accommodate the newly-discovered lag phase in ATX kinetics. To this end, and in order to provide adequate time to the hydrolysis of LPC by ATX, we added a 30min incubation period between ATX, inhibitors and LPC. Briefly, 2 μL of different concentrations of inhibitors diluted in DMSO (Sigma-Aldrich, St. Louis, MO, USA) were incubated with 50 µL of ATX 8 nM (human or mouse ATX from Sino Biological), and 48 µL reaction buffer (50 mM Tris-Cl pH 8.0 from Thermo Fisher Scientific, Waltham, MA, USA and 5 mM CaCl2 from Honeywell-Fluka, Charlotte, NC, USA) in a black 96-well microplate for 15 min at 37 °C. Thence, another 50 µL of reaction buffer with 200 μM LPC substrate 16:0 (Avanti Polar Lipids Inc, Alabaster, AL, USA) (final concentrations of LPC and ATX are 50 µM and 2 nM, respectively) was added to the reaction mixture and incubated for 30 min at 37 °C in order for ATX to convert LPC to LPA and choline. Finally, 50 µL of working solution containing 200 μM Amplex Red (Invitrogen, Carlsbad, CA, USA), 4 U/mL HRP (Sigma-Aldrich, St. Louis, MO, USA), 0.4 U/mL choline oxidase (Sigma-Aldrich, St. Louis, MO, USA) in 50 mM Tris-HCl pH 8.0 and 5 mM CaCl2 was added to measure the produced choline. The reaction was monitored at 37 °C in a fluorescence plate reader using excitation at 530 nm and reading at 590 nm, every 5 min for 30 min. The velocity of the reaction and the remaining activity of ATX were calculated at the linear phase of the reaction and dose-response inhibition graphs were plotted with GraphPad Software (GraphPad Software, San Diego, CA, USA). […] In order to evaluate a possible effect of the compounds on the second (choline oxidase) and third (HRP) enzymes of the Amplex Red assay, we also performed the assay in the absence of ATX but in the presence of the compounds. Instead of ATX, we added choline chloride at a final concentration of 2 µM so as the second and third steps of the assay could proceed normally.

Data set [3] has as its target T2, mouse ATX. Kind of data set: Mode of inhibition, modified Amplex assay, Lineweaver-Burk plots. It is filed as biochemical. The following applies: various LPC and inhibitor concentrations. Here is the method: Lastly, to get insight into the mode of inhibition of the new ATX inhibitors developed in the present study, the Lineweaver–Burk plots were performed.
To determine the mode of inhibition of ATX by each inhibitor, a modified Amplex assay was employed. […] Mouse ATX from Sino Biological was used in all mode of inhibition assays. Thereafter, the velocity (V) of the reaction was calculated and the reciprocal of velocity (1/V) was plotted against the reciprocal of substrate concentration (1/S) in Lineweaver–Burk graphs using GraphPad Software (GraphPad Software, San Diego, CA, USA).

Data set [4] has as its target T1, ATX. Kind of data set: IC50 Eleanna (Table S2, method not described). It is filed as biochemical.
Data set [5] can be described thus: Solubility (Table S1). As to conditions: YES/NO.
In data set [6] the target is T1, ATX. Kind of data set: Amplex Red Lyso-phospholipase D assay, human ATX. It is filed as biochemical. Details: purchased Sino Biological. The following applies: for inhibition at 30 µM: read-out: %inhibition at 30uM.
Data set [7] concerns the target phosphodiesterase (PDE). In words: Phosphodiesterase (PDE) colorimetric assay, 3',5'-cAMP and 3',5'-cGMP as substrates. The following applies: for activity against PDE: in words. It is filed as biochemical. An excerpt: This colorimetric assay kit uses 3′,5′-cAMP and 3′,5′-cGMP as substrates, and it is useful for the screening of inhibitors of nucleotide phosphodiesterase activity.

The target in data set [8] is T1, ATX. As to conditions: cited from earlier work.
Where [9] appears, read: in vitro IC50 (mATX 2nM), Table S2, mATX 2nM.
The mark [10] stands for this setting: recombinant mouse ATX 2 nM, LPC 16:0 substrate, Amplex Red, read-out: IC50 mATX.
[11] abbreviates: Table S2, read-out: IC50 Eleanna.
The mark [12] stands for this setting: in vitro IC50 (Sino hATX 2nM), Table S2, Sino hATX 2nM.
The mark [13] stands for this setting: in vitro IC50 (hATX 1nM), Table S2, hATX 1nM.
Where [14] appears, read: recombinant human ATX 2 nM, LPC 16:0 substrate, Amplex Red, read-out: IC50 hATX.

What is called IC50 is the point on the concentration scale where inhibition reaches its midpoint. Consider `CCCCCCCCCCCCCC(=O)Nc1ccc(CP(=O)(O)O)cc1` [Compound S32826], for which the IC50 in data set [1] was 0.0056 µM.

For orientation: inhibition means the change of the read-out against control, counted positive when it falls. On to `CCOC(=O)c1sc(SCc2ccccc2)c2c1CC(c1ccc(C)cc1)CC2O` (stereo not drawn) [KM03601, ethyl 3-benzylsulfanyl-4-hydroxy-6-(4-methylphenyl)-4,5,6,7-tetrahydro-2-benzothiophene-1-carboxylate], for which the IC50 was determined as 15 µM in data set [2] (setting [9]); 14.9 µM in data set [2] (setting [10]); 0.5 µM in data set [4] (setting [11]); 30.6 µM in data set [6] (setting [12]); 10 µM in data set [6] (setting [13]); 30.5 µM in data set [6] (setting [14]). For the same compound, the “Mode of Inhibition” value in data set [3] is listed as “competitive”. Besides, the Solubility entry in data set [5] is on record as “YES”. Further, the inhibition at 30 µM in data set [6] (Table S2, at 30uM) turned out to be 43.6%.

As for `CCOC(=O)c1c(CN2CCCCC2)n(Cc2ccccc2)c2cc(Br)c(O)cc12` [KM-14, ethyl 1-benzyl-6-bromo-5-hydroxy-2-(piperidin-1-ylmethyl)-1H-indole-3-carboxylate], the IC50 in data set [2] turned out to be 5.9 µM; in data set [4], 0.8 µM; in data set [6], 13.8 µM. Besides, in data set [3], the “Mode of Inhibition” value was “mixed”. The inhibition at 30 µM in data set [6] is 69%.

Consider `CCOC(=O)C1CCN(C(=O)Cc2c(Sc3ccc(Cl)cc3)[nH]c3ccccc23)CC1` [KM-24, ethyl 1-[2-[2-(4-chlorophenyl)sulfanyl-1H-indol-3-yl]acetyl]piperidine-4-carboxylate], for which the IC50 in data set [2] (setting [10]) came to 6.5 µM; in data set [4] (setting [11]) it was 0.5 µM; in data set [6] (setting [14]) it was 14.6 µM. For the same compound, the “Mode of Inhibition” value in data set [3] is listed as “mixed”. Further, in data set [6] (Table S2, at 30uM), the inhibition at 30 µM was 69.8%.

Regarding `COc1cccc(NC(=S)N2CCn3cccc3C2c2ccc(OC)c(OC)c2)c1` (stereo not drawn) [KM-26, 1-(3,4-dimethoxyphenyl)-N-(3-methoxyphenyl)-3,4-dihydro-1H-pyrrolo[1,2-a]pyrazine-2-carbothioamide], the IC50 in data set [2] (setting [10]) was determined as 7.4 µM; in data set [7] it was 2.8 µM; in data set [4] (setting [11]) it was 0.8 µM; in data set [6] (setting [14]) it was 5.6 µM. In addition, the “activity against PDE” value in data set [7] is “outstanding activity”. Further, the “Mode of Inhibition” value in data set [3] is given as “competitive”. Further, the inhibition at 30 µM in data set [6] (Table S2, at 30uM) was 83.3%.

Regarding `Cc1cccc(C)c1NC(=O)CSc1nc2ccccc2c(=O)n1CCc1cccs1` [KM-28, N-(2,6-dimethylphenyl)-2-[4-oxo-3-(2-thiophen-2-ylethyl)quinazolin-2-yl]sulfanylacetamide], the IC50 in data set [2] (setting [10]) was determined as 3 µM; in data set [7], 0.9 µM; in data set [4] (setting [11]), 2 µM; in data set [6] (setting [12]), 1.85 µM; in data set [6] (setting [14]), 1.8 µM. Moreover, in data set [7], the “activity against PDE” value is on record as “outstanding activity”. In addition, in data set [6] (Table S2, at 30uM), the inhibition at 30 µM came out at 84.2%.

With `COc1ccccc1NC(=S)N1CCn2cccc2C1c1ccc(OC)c(OC)c1` (stereo not drawn) [KM-41, 1-(3,4-dimethoxyphenyl)-N-(2-methoxyphenyl)-3,4-dihydro-1H-pyrrolo[1,2-a]pyrazine-2-carbothioamide], the IC50 was 60 µM in data set [2] (setting [9]), 0.3 µM in data set [4] (setting [11]) and 38 µM in data set [6] (setting [13]). Also, in data set [6] (Table S2, at 30uM), the inhibition at 30 µM turned out to be 33.5%.

In the case of `N[C@@H](Cc1c[nH]cn1)C(=O)O` [L-Histidine], in data set [8], the “IC50 (ATX inhibition)” value is on record as “millimolar range”.

As for `O=C(CCN1CCN(C(=O)OCc2cc(Cl)cc(Cl)c2)CC1)c1ccc2[nH]c(=O)oc2c1` [PF-8380, 3,5-Dichlorobenzyl 4-(3-oxo-3-(2-oxo-2,3-dihydrobenzo[d]oxazol-6-yl)propyl)piperazine-1-carboxylate, reference compound], in data set [7], the IC50 stood at 0.0011 µM. Further, in data set [3], the “Mode of Inhibition” value is recorded as “competitive”. Also, the Solubility entry in data set [5] is on record as “YES”.

`Cc1[nH]c2ccccc2c1C1=CCN(S(=O)(=O)c2cccc3nsnc23)CC1` [SC-41, 4-{[4-(2-Methyl-1H-indol-3-yl)-3,6-dihydropyridin-1(2H)-yl]sulfonyl}-2,1,3-benzothiadiazole]: the IC50 in data set [2] (setting [10]) stood at 4 µM; in data set [4] (setting [11]) it was 2.3 µM; in data set [6] (setting [14]), 13.6 µM. Also, in data set [3], the “Mode of Inhibition” value is given as “uncompetitive”. Moreover, in data set [6] (Table S2, at 30uM), the inhibition at 30 µM stood at 70.6%.

Regarding `O=C(Nc1c2c(nn1-c1ccc([N+](=O)[O-])cc1)CSC2)c1cccc2ccccc12` [SC-49, N-[2-(4-nitrophenyl)-4,6-dihydrothieno[3,4-c]pyrazol-3-yl]naphthalene-1-carboxamide], the IC50 stood at 9.7 µM in data set [2]; 0.2 µM in data set [4]; 10.2 µM in data set [6] (IC50 hATX, recombinant human ATX 2 nM, LPC 16:0 substrate, Amplex Red); 10.2 µM in data set [6] (setting [12]); 9 µM in data set [6] (setting [13]). Also, the “activity against PDE” value in data set [7] was “outstanding activity”. For the same compound, the inhibition at 30 µM in data set [6] is 65.8%.

For `O=C1Nc2ccccc2/C1=C/c1cc2ccccc2n1S(=O)(=O)c1ccccc1` [SCR01013, (3Z)-3-[[1-(Benzenesulfonyl)indol-2-yl]methylidene]-1H-indol-2-one], the IC50 in data set [2] (setting [10]) came to 67 µM; in data set [4] (setting [11]), 0.6 µM; in data set [6] (setting [13]), 43 µM; in data set [6] (setting [14]), 79 µM. In data set [5], the Solubility result is reported as “YES”. Further, the inhibition at 30 µM in data set [6] (Table S2, at 30uM) is 13.2%.
